Results from patent US20110046070A1, “GENE EXPRESSION INHIBITOR SELECTIVE FOR MATRIX METALLOPROTEINASE-9 GENE” (priority 2008, published 2011).

Experiments:
[1] = tested on: human uterine cervix cancer HeLa cells; experiment: Wound-healing migration assay, HeLa; type: cell-based; settings: 48 hours after the damage, various concentrations
Method: A human breast cancer MDA-MB-231 cell strain was used. The cells were cultured at 37° C. in a humid environment containing 5% CO^2 in an RPMI1640 medium (Sigma-Aldrich Corp., St. Louis, Mo., USA) supplemented with 100 μg/ml streptomycin, 100 units/ml penicillin and 10% fetal bovine serum (FBS) (Sigma-Aldrich Corp.). Human uterine cervix cancer HeLa cells were cultured in a Dulbecco's modified Eagle medium (DMEM, Invitrogen Life Technologies, Corp., Carlsbad, Calif.) containing 10% FBS and 2 mM L-glutamine.
To assay cellular migration in the process of wound healing, 3×10^5 cells were inoculated to each well of an 8-well chamber slide, and the cell layer was damaged using a plastic micropipette when the cells reached confluence. The medium and debris were removed by suction, and 100 μl of a fresh medium containing various polyamides was replaced therefor. 48 hours after the damage, the cells were fixed with Diff-Quik solution (SYSMEX INTERNATIONAL REAGENTS CO., LTD., Kobe, Japan), then stained, and photographed using a phase-contrast microscope.

MDA-MB-231 cells [2] = experiment: Invasion assay into matrigel, MDA-MB-231; type: cell-based, human; settings: 22 hours
Method: (§1) Cell invasion assay was conducted using a 24-well cell culture BioCoat matrigel invasion chamber (BD Biosciences, Discovery Labware, Bedford, Mass., USA). MDA-MB-231 cells (1×10^3 cells/well) or HeLa cells (1×10^3 cells/well) were suspended in an RPMI1640 or DMEM medium containing 0.1% FBS and added to the upper chamber. An RPMI1640 or DMEM medium containing 5% FBS was added to the lower chamber. Then, the cells were cultured at 37° C. for 22 hours in a 5% CO2 environment. Noninvasive cells remaining on the membrane were wiped off using a cotton swab. Invasion cells were fixed and stained with a Diff-Quik kit. The number of cells invading the membrane was determined in mean±standard deviation from a total of 3 membranes by counting in 10 fields of view per membrane using an optical microscope (200× magnification).
The degradation of constitutive proteins of extracellular matrix is important for the invasion of tumor cells. To evaluate the influence of HMMP9AP1 and HMMP9NFκβ, the MMP9 Py-Im polyamides of the present invention, on the invasion of tumor cells, 5×10^3 MDA-MB-231 cells were incubated with each polyamide at various concentrations for 22 hours. The invasiveness of cells treated with DMSO or each polyamide of the present invention was compared in MDA-MB-231 cells. The DMSO-treated MDA-MB-231 cells remarkably invaded the transparent membrane coated with matrigel. […] In contrast, the cells treated with the HMMP9AP1 or HMMP9NFκβ of the present invention had much lower invasion into the membrane.

HeLa cells [3] = experiment: Invasion assay into matrigel, HeLa; type: cell-based, human; settings: various concentrations
Method: as §1

[4] = tested on: MMP-9 gelatin degradation activity in culture supernatants of MDA-MB-231 cells; experiment: Zymography assay using gelatin as a substrate; type: cell-based, human; settings: 48 hours, MDA-MB-231 supernatant; for inhibition at 1 µM: read-out: inhibition of gelatin degradation activity compared with the control
Method: Proteins collected from culture supernatants of MDA-MB-231 cells were assayed using Novex (registered trademark) zymogram gelatin gel and XCell SureLock™ Mini-cell (Invitrogen Life Technologies, Corp.). The polyamides of the present invention were separately added at various concentrations to 2.5×10^5 cells. After 48-hour incubation, the supernatants were collected. Proteins from each sample were mixed with Novex (registered trademark) Tris-glycine SDS sample buffer (2×) and separated on a 10% zymogram gelatin gel. The gel was washed with a renaturing buffer and a developing buffer according to the manufacturer's manual. Then, the gel was digitized.

MDA-MB-231 cells [5] = experiment: Growth inhibition assay, MDA-MB-231; type: cell-based, human; settings: MDA-MB-231, 0 μM to 30 μM, 72 hours, WST-8
Method: (§2) Cell growth inhibition test was conducted using MDA-MB-231 and HeLa cells. The HeLa cells were inoculated at a concentration of 2500 cells/well to a 96-well microtiter plate and incubated for 24 hours in 100 μl of Dulbecco's modified Eagle medium (DMEM) containing 10% fetal bovine serum (Invitrogen). Then, after medium replacement, the cells were cultured for 72 hours in a medium supplemented with 10% fetal bovine serum containing 0 μM to 30 μM (0 μM, 0.3 μM, 1 μM, 3 μM, 10 μM and 30 μM) polyamide HMMP9NFκβ, and 10 μl of live cell counting reagent SF (Nacalai Tesque, Inc.) was added thereto, followed by 2-hour color reaction. Absorbance was measured at 450 nm using an ARVO microtiter plate reader. This experiment was conducted by modified MTT assay (WST-8 ™: Nacalai Tesque, Inc.) using water-soluble formazan.

HeLa cells [6] = experiment: Growth inhibition assay, HeLa; type: cell-based, human; settings: 0 μM to 30 μM, 72 hours, WST-8
Method: as §2

Q: How did the “migration of HeLa cells” value [1] turn out when `CC(=O)Nc1cc(C(=O)Nc2cc(C(=O)NCCC(=O)Nc3cc(C(=O)Nc4cc(C(=O)NCCCC(=O)Nc5cn(C)c(C(=O)Nc6cn(C)c(C(=O)NCCC(=O)Nc7cc(C(=O)Nc8cc(C(=O)NCCC(=O)NCCCN(C)C)n(C)c8)n(C)c7)n6)n5)n(C)c4)n(C)c3)n(C)c2)n(C)c1` [HMMP9NFκβ] was run?
A: inhibit the migration of HeLa cells in a concentration-dependent manner

Q: What about the “decrease in invasion compared to the DMSO-treated control” value (shortened to “decrease in invasion”) (MDA-MB-231 cells [2]; 0.3 μM) of the same compound?
A: 88%

Q: And the “decrease in invasion” value (MDA-MB-231 cells [2]; 1 μM)?
A: 61%

Q: And the “decrease in invasion” value (MDA-MB-231 cells [2]; 3 μM)?
A: 30%

Q: What about the “decrease in invasion” value (MDA-MB-231 cells [2]; 10 μM) of the same compound?
A: 22%

Q: What about the “invasion of HeLa cells into matrigel” value (HeLa cells [3]) of the same compound?
A: invasion into matrigel decreases in an HMMP9NFκβ concentration-dependent manner

Q: What about the inhibition at 1 µM ([4]; Homo sapiens) of the same compound?
A: 62%

Q: And the inhibition at 10 µM ([4]; Homo sapiens, 10 μM, read-out: inhibition of gelatin degradation activity (enzymatic activity of MMP-9))?
A: 82%

Q: What about the “number of live cells (growth inhibition)” value (MDA-MB-231 cells [5]) of the same compound?
A: decreased the number of live cells in a concentration-dependent manner

Q: And the “number of live cells (growth inhibition)” value (HeLa cells [6])?
A: decreased the number of live cells in a concentration-dependent manner

Q: With `CC(=O)Nc1cn(C)c(C(=O)Nc2cc(C(=O)NCCC(=O)Nc3cn(C)c(C(=O)Nc4cc(C(=O)Nc5cc(C(=O)NCCCC(=O)Nc6cn(C)c(C(=O)Nc7cn(C)c(C(=O)Nc8cc(C(=O)NCCC(=O)Nc9cn(C)c(C(=O)Nc%10cc(C(=O)NCCC(=O)NCCCN(C)C)n(C)c%10)n9)n(C)c8)n7)n6)n(C)c5)n(C)c4)n3)n(C)c2)n1` [HMMP9AP1] as the compound, how does the “migration of HeLa cells” value [1] read?
A: inhibited the migrations

Q: What about the “decrease in invasion” value (MDA-MB-231 cells [2]; 0.3 μM) of the same compound?
A: 90%

Q: What about the “decrease in invasion” value (MDA-MB-231 cells [2]; 1 μM) of the same compound?
A: 52%

Q: And the “decrease in invasion” value (MDA-MB-231 cells [2]; 3 μM)?
A: 44%

Q: And the “decrease in invasion” value (MDA-MB-231 cells [2]; 10 μM)?
A: 25.4%

Q: What about the “invasion of HeLa cells into matrigel” value (HeLa cells [3]) of the same compound?
A: inhibited the invasion activities

Q: And the “inhibition of gelatin degradation activity (enzymatic activity of MMP-9)” value ([4]; 10 μM)?
A: almost completely

Q: What about the inhibition at 1 µM ([4]; Homo sapiens) of the same compound?
A: 50%

Q: And the “number of live cells (growth inhibition)” value (MDA-MB-231 cells [5])?
A: decreased the number of live cells

Q: And the “number of live cells (growth inhibition)” value (HeLa cells [6])?
A: decreased the number of live cells
